According to patent US10000487B2, “Heterocyclic compounds that inhibit the kinase activity of Mnk useful for treating various cancers” (eFFECTOR Therapeutics, Inc., priority 2015, dated 2018):

Experiments:
recombinant MNK1 = recombinant MNK1 (Homo sapiens (Human), UniProt Q9BUB5); assay: MNK biochemical enzymatic assay (ADP-Glo), MNK1; design: key to MNK1 IC50: IC50 values of less than 0.01 μM are labelled as “+++”; from 0.01 to 0.10 μM are labelled as “++”; from 0.1 to 10 μM are labelled as “+”; Inactive: greater than 10 μM are labelled inactive; conditions: 10 nM MNK1, 300 μM ATP
recombinant MNK1, sequence (Q9BUB5 whole entry): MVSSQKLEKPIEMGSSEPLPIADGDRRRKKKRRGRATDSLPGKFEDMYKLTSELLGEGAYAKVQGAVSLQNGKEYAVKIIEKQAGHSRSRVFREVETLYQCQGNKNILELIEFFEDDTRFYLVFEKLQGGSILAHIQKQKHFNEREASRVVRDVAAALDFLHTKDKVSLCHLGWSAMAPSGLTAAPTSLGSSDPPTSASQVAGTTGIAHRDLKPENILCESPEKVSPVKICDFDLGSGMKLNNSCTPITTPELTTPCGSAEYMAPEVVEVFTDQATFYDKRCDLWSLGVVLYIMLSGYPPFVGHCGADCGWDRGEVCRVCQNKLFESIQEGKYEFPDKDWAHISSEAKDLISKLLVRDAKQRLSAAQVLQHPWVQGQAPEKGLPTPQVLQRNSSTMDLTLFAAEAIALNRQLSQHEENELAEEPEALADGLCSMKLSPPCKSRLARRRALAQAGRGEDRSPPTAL
Protocol: (§1) Compounds are screened for MNK inhibition using the ADP-Glo kinase assay kit (Promega, catalogue No. V9101). All kinase reactions are performed in Reaction Buffer E (15 mM HEPES pH7.4, 20 mM NaCl, 1 mM EGTA, 10 mM MgCl2, 0.1 mg/ml BGG, and 0.02% Tween-20). Final MNK1 reactions contained 10 nM recombinant MNK1 (Life Technologies, PR9138A), 100 μM MNK substrate peptide Ac-TATKSGSTTKNR-NH2 (American Peptide Company), 300 μM ATP, and varying concentrations of the inhibitory compound of interest. Final MNK2 reactions contained 3 nM recombinant MNK2 (Life Technologies, PV5607), 50 μM MNK substrate peptide Ac-TATKSGSTTKNR-NH2 (American Peptide Company), 10 μM ATP, and varying concentrations of the inhibitory compound of interest. Final DMSO concentration in each reaction is 1%.
(§2) Kinase reactions are carried out in 96-well half-area white flat-bottom polystyrene plates in a final volume of 25 μl. MNK1/2 enzymes are pre-incubated with compound and peptide substrate for 5 minutes prior to the addition of ATP. After the addition of ATP, kinase reactions are incubated at room temperature for 40 minutes. Reactions are subsequently stopped by the addition of 25 μl of ADP-Glo Reagent and incubating for an additional 40 minutes. The final luminescent signal used for kinase activity readout is produced by the addition of 45 μl of Kinase Detection Reagent (ADP-Glo kit, Promega) and incubating for 40 minutes. The luminescent signal is detected using a Victor 2 multilabel counter (Perkin Elmer) and the concentration of compound necessary to achieve inhibition of enzyme activity by 50% (IC50) is calculated using signals from an 8-point compound dilution series.

recombinant MNK2 = recombinant MNK2 (Homo sapiens (Human), UniProt Q9HBH9); assay: MNK biochemical enzymatic assay (ADP-Glo), MNK2; conditions: 3 nM MNK2, 10 μM ATP
recombinant MNK2, sequence (Q9HBH9 whole entry): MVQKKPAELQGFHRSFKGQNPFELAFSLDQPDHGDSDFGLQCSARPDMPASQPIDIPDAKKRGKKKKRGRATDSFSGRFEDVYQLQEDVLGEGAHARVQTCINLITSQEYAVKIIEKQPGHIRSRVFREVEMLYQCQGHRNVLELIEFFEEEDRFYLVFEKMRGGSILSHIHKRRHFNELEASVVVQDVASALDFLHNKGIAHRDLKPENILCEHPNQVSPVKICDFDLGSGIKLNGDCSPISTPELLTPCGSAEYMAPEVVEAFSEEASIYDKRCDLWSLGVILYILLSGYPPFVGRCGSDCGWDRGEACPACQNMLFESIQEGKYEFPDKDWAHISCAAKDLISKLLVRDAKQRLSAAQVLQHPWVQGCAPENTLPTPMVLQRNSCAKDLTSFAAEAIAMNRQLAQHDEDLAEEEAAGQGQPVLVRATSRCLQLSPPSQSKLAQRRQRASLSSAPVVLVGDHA
Protocol: as §1, §2

Phosphorylated eIF4E = assay: peIF4E signaling cellular assay (CisBio HTRF); format: cell-based; conditions: 2 hrs incubation at 37° C.
Protocol: Phosphorylated eIF4E is assayed using the CisBio peIF4E HTRF® assay kit (CisBio, catalogue No. 64EF4PEG). Cells are plated in 96-well tissue-culture treated plate in appropriate growth medium (90 μL). Compounds (10×) are diluted using 3-fold serial dilutions in cell culture medium and added to cells. Plates are incubated for 2 hrs at 37° C. The cell supernatant is carefully removed either by aspirating supernatant or by flicking the plate. Immediately 50 μL of supplemented lysis buffer (1×) is added and incubated for at least 30 minutes at room temperature under shaking. After homogenization by pipeting up and down, 16 μL of cell lysate is transferred from the 96-well cell-culture plate to a 384-well small volume white plate. 4 μL of premixed antibody solutions (vol/vol) is prepared in the detection buffer and added. The plate is covered with a plate sealer and incubated overnight at room temperature. The fluorescence emissions at two different wavelengths are read (665 nm and 620 nm) on a Wallac Victor2. Emission ratios are converted into percent inhibitions and imported into GraphPad Prism software. […] IC50 values are determined using a nonlinear regression model available in GraphPad Prism 5.

Row | SMILES | IC50 (recombinant MNK1) [nM] | IC50 (recombinant MNK2) [nM] | IC50 (Phosphorylated eIF4E) [nM] | MNK1 IC50 (recombinant MNK1)
1 | O=C1NC2(CCCCC2)n2c1c(Cl)cc(Nc1nncs1)c2=O [1F, 6′-((1,3,4-thiadiazol-2-yl)amino)-8′-chloro-2′H-spiro[cyclohexane-1,3′-imidazo[1,5-a]pyridine]-1′,5′-dione] | 100 to 10000 | 10 to 100 | 100 to 100000 | 
2 | O=C1NC2(CCCCC2)n2c1c(Cl)cc(Nc1ncns1)c2=O [2F, 6′-((1,2,4-thiadiazol-5-yl)amino)-8′-chloro-2′H-spiro[cyclohexane-1,3′-imidazo[1,5-a]pyridine]-1′,5′-dione] | 10 to 100 | < 10 | 100 to 100000 | 
3 | O=C1NC2(CCCCC2)n2c1c(Cl)cc(Nc1ncn[nH]1)c2=O [4F, 6′-((1H-1,2,4-triazol-5-yl)amino)-8′-chloro-2′H-spiro[cyclohexane-1,3′-imidazo[1,5-a]pyridine]-1′,5′-dione] | 100 to 10000 | 10 to 100 |  | 
4 | O=C1NC2(CCCCC2)n2c1c(Cl)cc(Nc1cnns1)c2=O [compound 3, 6′-((1,2,3-thiadiazol-5-yl)amino)-8′-chloro-2′H-spiro[cyclohexane-1,3′-imidazo[1,5-a]pyridine]-1′,5′-dione] |  | 10 to 100 | 100 to 100000 | Inactive
5 | O=C1NC2(CCCCC2)n2c1c(Cl)cc(Nc1cncs1)c2=O [compound 5, 8′-chloro-6′-(thiazol-5-ylamino)-2′H-spiro[cyclohexane-1,3′-imidazo[1,5-a]pyridine]-1′,5′-dione] | 100 to 10000 | 10 to 100 |  | 
6 | O=C1NC2(CCCCC2)n2c1c(Cl)cc(Nc1cnsn1)c2=O [compound 6, 6′-((1,2,5-thiadiazol-3-yl)amino)-8′-chloro-2′H-spiro[cyclohexane-1,3′-imidazo[1,5-a]pyridine]-1′,5′-dione] |  | < 10 | 100 to 100000 | 
7 | Cn1ncc(Nc2cc(Cl)c3n(c2=O)C2(CCCCC2)NC3=O)n1 [compound 7, 8′-chloro-6′-((2-methyl-2H-1,2,3-triazol-4-yl)amino)-2′H-spiro[cyclohexane-1,3′-imidazo[1,5-a]pyridine]-1′,5′-dione] |  | < 10 | 100 to 100000 | 
8 | O=C1NC2(CCCCC2)n2c1c(Cl)cc(Nc1nnco1)c2=O [compound 8, 6′-((1,3,4-oxadiazol-2-yl)amino)-8′-chloro-2′H-spiro[cyclohexane-1,3′-imidazo[1,5-a]pyridine]-1′,5′-dione] | 100 to 10000 | 100 to 10000 | 100 to 100000 | 
9 | O=C1NC2(CCCCC2)n2c1c(Cl)cc(Nc1cn[nH]n1)c2=O [compound 9, 6′-((2H-1,2,3-triazol-4-yl)amino)-8′-chloro-2′H-spiro[cyclohexane-1,3′-imidazo[1,5-a]pyridine]-1′,5′-dione] | 10 to 100 | < 10 | 100 to 100000 | 
10 | O=C1NC2(CCCCC2)n2c1c(Cl)cc(Nc1ncncn1)c2=O [compound 11, 6′-((1,3,5-triazin-2-yl)amino)-8′-chloro-2′H-spiro[cyclohexane-1,3′-imidazo[1,5-a]pyridine]-1′,5′-dione] |  | < 10 | 10 to 100 | 
11 | Nc1cc(Nc2cc(Cl)c3n(c2=O)C2(CCCCC2)NC3=O)ccn1 [compound 13, 6′-((2-aminopyridin-4-yl)amino)-8′-chloro-2′H-spiro[cyclohexane-1,3′-imidazo[1,5-a]pyridine]-1′,5′-dione] |  | 10 to 100 | 100 to 100000 | 
